Where two headings read alike, the source gives them in different places.
Experiments:
Assay type in all cases: cell-based
[1] = test system: Human PBMC incubated with MHC-mismatched PBMC; assay: One-way mixed lymphocyte reaction (primary MLR), [3H]TdR uptake; conditions: for IC50: Table 5, some values marked (mean), read-out: IC 50% (inhibition of Primary MLR); for % response (alloreactive relative response, cpm with/without tyrphostin x100): FIG. 2, response without tyrphostin = 100%; for cpm: no tyrphostin 10,734 cpm; for cpm ± SD: no tyrphostin 30,520 cpm
Protocol: Cell sources: Human peripheral blood mononuclear cells (PBMC) were obtained from healthy human donors after separation on Ficoll-Paque density gradient essentially as described in Boyum, A. Scand. J Lab. Invest. […] Reagents:
One-way mixed lymphocyte reaction (MLR assay): Responding cells derived from donor A (5×10^4) were cultured in round-bottom microwell plates with an equal number (5×10^4) of irradiated (6000 cGy) donor B PBMC with and without tyrphostins. […] During the last 18 hours of incubation, cultures were pulsed with 2 μCi of [^3H] TdR.
(§1) Harvesting and radioactivity determination: Harvesting was carried out by a multiple-sample cell harvester and radioactivity, expressed in counts per minutes (cpm), was determined in a liquid scintillation β-counter.
Human PBMC were incubated either with autologous or with MHC-mismatched PBMC in a one-way MLR assay, with and without various concentrations of tyrphostins, as is described hereinabove.
In this case, the alloreactive response without the tyrphostins was considered as 100% response. Percentage of response was calculated according to the following formula: b/a×100; where a=cpm in cultures without tyrphostin, b=cpm in cultures with tyrphostin.

[2] = test system: donor A anti-donor B-primed human PBMC vs third party unrelated donor C PBMC; assay: Primary MLR of alloantigen-primed PBMC against third party unrelated donor C; conditions: then removed, priming without tyrphostin = 100%
Protocol: (§2) PBMC from donor A (10×10^6) were stimulated with equal number of irradiated (6000 cGy) donor B PBMC, with and without tyrphostins, in a total volume of 20 ml culture medium supplemented with 10% heat inactivated human AB^+ serum (mixed lymphocyte culture, MLC). Cultures were placed vertically in 25 cm tissue culture flasks in a 5% CO2, humidified incubator at 37° C. After 10 days, cells were washed twice to remove the tyrphostin, and tested for their ability to respond in the MLR and the primary mitogenic response assay described hereinabove.
(§3) The alloreactivity of donor A anti-donor B-primed cells (5×10^4) was tested in a 6-day one-way primary MLR assay against third party unrelated donor C PBMC (10^5), or against donor A cells (background control). Cultures were placed in round-bottom microwell plates. On day 5, cultures were pulsed with 2 μCi [^3H] TdR/well for 16-18 hours and then harvested. […] After 48 hours at 37° C. in a 5% CO2 humidified incubator, cultures were pulsed with 2 μCi [^3H] TdR for another 16-18 hours and then harvested.
as §1
(§4) […] After 10 days the tyrphostin was removed and the primed cells were tested for their ability to respond in a secondary MLR assay against the priming (donor B) alloantigens, in a primary MLR assay against third party unrelated alloantigens (donor C), and to non-specific stimulation in a mitogenic assay. […] Percentage of response was calculated according to the formula described above.

[3] = test system: donor A anti-donor B-primed human PBMC stimulated with PHA; assay: Mitogenic response (PHA) of alloantigen-primed PBMC; conditions: then removed, priming without tyrphostin = 100%
Protocol: as §2
Cultures were incubated for 48 hours in a total volume of 0.2 ml culture medium supplemented with 10% heat-inactivated human AB^+ serum at 37° C. in a 5% CO2 humidified incubator, pulsed for 16-18 hours with 1 μCi [^3H]TdR/well, and then harvested.
as §1, §4

[4] = test system: donor A anti-donor B-primed human PBMC vs donor B PBMC; assay: Secondary MLR of alloantigen-primed PBMC against priming donor B; conditions: then removed, priming without tyrphostin = 100%
Protocol: as §2, §3, §1, §4

[5] = test system: Human PBMC stimulated with phytohemagglutinin (PHA); assay: Primary mitogenic response assay (PHA), [3H]TdR uptake; conditions: Table 6, tyrphostin 20 μM; for inhibition at 20 µM: Homo sapiens, PBMC, 96 h; for cpm ± SD: PHA without tyrphostin 14,959±644, medium 155±37
Protocol: Mitogens: Phytohemagglutinin (PHA) and concanavalin A (Con-A) were dissolved in saline and diluted to their final concentration in culture medium. Anti-CD3 (OK3 stock solution 1 μg/ml) was diluted to 0.2 μg/ml final concentration in culture medium.
Responding PBMC cells (10^5) derived from donor A were cultured in flat-bottom microwell plates with and without tyrphostins, and with phytohemagglutinin (PHA) 1 μg/ml, or concanavalin A 18 μg/ml. […] During the last 18 hours of incubation, cultures were pulsed with 1 μCi of [^3H] TdR.
as §1

[6] = primed 10 days with tyrphostin 20 μM
[7] = primed 10 days with tyrphostin 40 μM
[8] = primed 10 days with tyrphostin 5 μM
[9] = primed 10 days with tyrphostin 10 μM
[10] = Table 2, primary MLR, tyrphostin 5 μM
[11] = Table 2, primary MLR, tyrphostin 10 μM
[12] = Homo sapiens, PBMC, 144 h, Table 2, primary MLR, tyrphostin 10 μM
[13] = Homo sapiens, PBMC, 144 h, Table 2, primary MLR, tyrphostin 50 μM
[14] = Table 2, primary MLR, tyrphostin 50 μM
[15] = primed 10 days with tyrphostin 30 μM
[16] = Homo sapiens, PBMC, 144 h, Table 3, primary MLR, tyrphostin 25 μM
[17] = Homo sapiens, PBMC, 144 h, Table 3, primary MLR, tyrphostin 50 μM
[18] = Table 3, primary MLR, tyrphostin 25 μM
[19] = Table 3, primary MLR, tyrphostin 50 μM

3-(3,5-dimethyl-H-pyrrol-2-yl-methylene)-2-oxo-2,3-dihydro-1H-indole-5-sulfonic acid dimethylamide [Tyr 16]
% Inhibition ([1]; Table 4, primary MLR, tyrphostin 1 μM): 62% | IC50 [1]: 4 µM

N#CC(=Cc1cc(O)c(O)c(CSCCCc2ccccc2)c1)C(=O)NCc1ccccc1 [Tyr 2, N-benzyl-2-cyano-3-[3,4-dihydroxy-5-(3-phenylpropylsulfanylmethyl)-phenyl]-acrylamide]
% Response to unrelated stimulator [2, 6]: 257% | % Response to unrelated stimulator [2, 7]: 138% | % response (alloreactive relative response, cpm with/without tyrphostin x100) ([1]; primary MLR, tyrphostin 10 μM): 73% | % response (alloreactive relative response, cpm with/without tyrphostin x100) ([1]; primary MLR, tyrphostin 50 μM): 0% | inhibition at 20 µM ([1]; Homo sapiens, PBMC, 144 h, Table 2, primary MLR, tyrphostin 20 μM): 73% | inhibition at 40 µM ([1]; Homo sapiens, PBMC, 144 h, Table 2, primary MLR, tyrphostin 40 μM): 95% | IC50 ([1]; Homo sapiens, PBMC): 22 µM | cpm ([1]; Table 2, primary MLR, tyrphostin 20 μM): 2,863 cpm | cpm ([1]; Table 2, primary MLR, tyrphostin 40 μM): 490 cpm | % Response to PHA [3, 6]: 900% | % Response to PHA [3, 7]: 254% | % Response to primary stimulator [4, 6]: 280% | % Response to primary stimulator [4, 7]: 15%

Cc1ccc(-c2nn(C(C)(C)C)c3ncnc(N)c23)cc1 [Tyr 3, 4-amino-1-t-butyl-3-(p-toluyl)pyrazolo[3,4-d]pyrimidine]
inhibition at 20 µM ([5]; mitogenic response): 98% | cpm ± SD [5]: 300 ± 24 cpm | % Response to unrelated stimulator [2, 8]: 55% | % Response to unrelated stimulator [2, 9]: 206 ± 99% | % Response to unrelated stimulator [2, 6]: 57 ± 44^ % | cpm [1, 10]: 3,130 cpm | cpm [1, 11]: 145 cpm | % Response to PHA [3, 8]: 26% | % Response to PHA [3, 9]: 110 ± 35% | % Response to PHA [3, 6]: 30 ± 28^ % | % Response to primary stimulator [4, 8]: 65% | % Response to primary stimulator [4, 9]: 24 ± 10% | % Response to primary stimulator [4, 6]: 24 ± 18%

CC(C)(C)n1nc(-c2ccc(Cl)cc2)c2c(N)ncnc21 [Tyr 4, 4-amino-1-t-butyl-3-(p-chlorophenyl)pyrazolo[3,4-d]pyrimidine]
inhibition at 20 µM ([5]; mitogenic response): 98% | cpm ± SD [5]: 230 ± 115 cpm | % Response to unrelated stimulator [2, 8]: 145% | % Response to unrelated stimulator [2, 9]: 288 ± 122^ % | % Response to unrelated stimulator [2, 6]: 204 ± 18% | cpm [1, 10]: 3,316 cpm | cpm [1, 11]: 580 cpm | % Response to PHA [3, 8]: 29% | % Response to PHA [3, 9]: 120 ± 40% | % Response to PHA [3, 6]: 40 ± 32^ % | % Response to primary stimulator [4, 8]: 132% | % Response to primary stimulator [4, 9]: 13 ± 4.5% | % Response to primary stimulator [4, 6]: 6.5 ± 0.5%

N#CC(=Cc1ccc(O)c(O)c1)C(=O)NCCCCc1ccccc1 [Tyr 5, 2-cyano-3-(3,4-dihydroxyphenyl)-N-(4-phenylbutyl)-acrylamide]
% response (alloreactive relative response, cpm with/without tyrphostin x100) ([1]; primary MLR, tyrphostin 10 μM): 32% | % response (alloreactive relative response, cpm with/without tyrphostin x100) ([1]; primary MLR, tyrphostin 50 μM): 13% | inhibition at 10 µM [1, 12]: 40% | inhibition at 50 µM [1, 13]: 70% | IC50 ([1]; Homo sapiens, PBMC): 34 µM | cpm [1, 11]: 6,413 cpm | cpm [1, 14]: 3,156 cpm

N#CC(=Cc1cc(O)c(O)c(CSCCc2ccccc2)c1)C(=O)NCCCCc1ccccc1 [Tyr 6, 2-cyano-3-(3,4-dihydroxy-5-phenethylsulfanylmethyl-phenyl)-N-(4-phenylbutyl)-acrylamide]
inhibition at 20 µM ([5]; mitogenic response): 70% | cpm ± SD [5]: 4,662 ± 104 cpm | % Response to unrelated stimulator [2, 9]: 250% | % Response to unrelated stimulator [2, 6]: 220 ± 93% | % Response to unrelated stimulator [2, 15]: 185% | inhibition at 10 µM [1, 12]: 59% | inhibition at 50 µM [1, 13]: 99% | IC50 ([1]; Homo sapiens, PBMC): 23 µM | cpm [1, 11]: 4,431 cpm | cpm [1, 14]: 168 cpm | % Response to PHA [3, 9]: 152% | % Response to PHA [3, 6]: 62 ± 42^ % | % Response to PHA [3, 15]: 20% | % Response to primary stimulator [4, 9]: 32% | % Response to primary stimulator [4, 6]: 32 ± 0% | % Response to primary stimulator [4, 15]: 46%

N#CC(C#N)=Cc1ccc([N+](=O)[O-])c(O)c1 [Tyr 7, 2-(3-hydroxy-4-nitro-benzylidene)malononitrile]
inhibition at 50 µM [1, 13]: 50% | inhibition at 100 µM ([1]; Homo sapiens, PBMC, 144 h, Table 2, primary MLR, tyrphostin 100 μM): 95% | IC50 ([1]; Homo sapiens, PBMC): 36 µM | cpm [1, 14]: 5,348 cpm | cpm ([1]; Table 2, primary MLR, tyrphostin 100 μM): 512 cpm

COc1cc2ncnc(Nc3ccc(C(N)=O)cc3)c2cc1OC [Tyr 8, 4-(6,7-dimethoxyquinazoline-4-yl-amino)-benzamide]
inhibition at 25 µM [1, 16]: 49% | inhibition at 50 µM [1, 17]: 63% | IC50 ([1]; Homo sapiens, PBMC): 43 µM | cpm ± SD [1, 18]: 12,452 cpm | cpm ± SD [1, 19]: 11,293 cpm

COc1cc2ncnc(Nc3ccc(O)cc3)c2cc1OC [Tyr 9, 4-(6,7-dimethoxyquinazoline-4-yl-amino)-phenol]
inhibition at 20 µM ([5]; mitogenic response): 70% | cpm ± SD [5]: 4,582 ± 617 cpm | inhibition at 25 µM [1, 16]: 95% | inhibition at 50 µM [1, 17]: 99% | IC50 ([1]; Homo sapiens, PBMC): 26 µM | cpm ± SD [1, 18]: 1,367 cpm | cpm ± SD [1, 19]: 371 cpm

CC(C)(C)n1nc(-c2cccs2)c2c(N)ncnc21 [Tyr 15, 4-amino-1-t-butyl-3-(2-thiophene)pyrazolo[3,4-d]pyrimidine]
IC50 [1]: 7 µM

COc1ccc(-c2nn(C(C)(C)C)c3ncnc(N)c23)cc1OC [Tyr 19, 4-amino-1-t-butyl-3-(3,4-dimethoxyphenyl)-pyrazolo[3,4-d]pyrimidine]
inhibition at 20 µM ([5]; mitogenic response): 96% | cpm ± SD [5]: 553 ± 59 cpm | inhibition at 10 µM ([1]; Homo sapiens, PBMC, 144 h, Table 4, primary MLR, tyrphostin 10 μM): 63% | inhibition at 20 µM ([1]; Homo sapiens, PBMC, 144 h, Table 4, primary MLR, tyrphostin 20 μM): 80% | IC50 ([1]; Homo sapiens, PBMC): 3 µM

CC(C)(C)c1cc(C=C(C#N)C(N)=S)cc(C(C)(C)C)c1O [Tyr 23, 2-cyano-3-(3,5-di-t-butyl-4-hydroxyphenyl)-thioacrylamide]
inhibition at 20 µM ([5]; mitogenic response): 68% | cpm ± SD [5]: 4,831 ± 1026 cpm

N#CC(=Cc1c[nH]c2ccccc12)c1[nH]nc(N)c1C#N [Tyr 24, 3-amino-5-[1-cyano-2-(1H-indol-3-yl)vinyl]-1H-pyrazole-4-carbonitrile]
inhibition at 20 µM ([5]; mitogenic response): 96% | cpm ± SD [5]: 533 ± 45 cpm

N#CC(=Cc1ccc(O)c(O)c1)C(=S)NCc1ccccc1 [Tyr 26, N-benzyl-2-cyano-3-(3,4-dihydroxyphenyl)-thioacrylamide]
inhibition at 20 µM ([5]; mitogenic response): 70% | cpm ± SD [5]: 4,295 ± 221 cpm

N#CC(=Cc1cc(O)c(O)c(I)c1)C(=O)NCCCc1ccccc1 [Tyr 32, 2-cyano-3-(3,4-dihydroxy-5-iodophenyl)-N-(4-phenylpropyl)-acrylamide]
% Inhibition ([5]; mitogenic response): 58% | cpm ± SD [5]: 6,303 ± 1205 cpm
